This data set can be described thus: RP, 50 × 2.1 mm, 1.7 µm, 0.5 mL/min, estimated dead time 0.22 min; A: 98% water + 2% acetonitrile + 0.1% formic acid, pH 3; B: 2% water + 98% acetonitrile + 0.1% formic acid, pH 3; gradient (min/%B) 0/0 0.5/0 4/60 8/100 9/100 9.2/0 10/0. Particulars: stereoisomer not certain.

Turning to `CCCCCCCCC=CCCCCCCCCCC(=O)OCC(O)COP(=O)([O-])OCC[N+](C)(C)C` (stereo not given) [LysoPC(20:1)], the LC retention time was 6.88 min.

For `CC(CCC(=O)O)C1CCC2C3CC(O)C4CC(O)CCC4(C)C3CCC12C` (stereo not given), the LC retention time was 4.78 min.

On to `CC(=O)C(CCCCN)NS(=O)(=O)c1ccc(C)cc1` [N-tosyl-L-lysinyl methyl ketone], for which the LC retention time was 7.42 min.

Consider `CCCCCCCCCCCCCCCC(=O)OC(CC(=O)[O-])C[N+](C)(C)C` (stereo not given) [palmitylcarnitine], for which the LC retention time was 6.15 min.

Regarding `CCCCCCCCCCCCCCCCCC(O)CC(=O)O` (stereo not given) [3-hydroxyeicosanoic acid], the LC retention time is 7.39 min.

As for `NC(N)=NCCC(=O)O` [3-guanidinopropionic acid], the LC retention time is 0.883 min.

In the case of `CCCCCCCCCCCCCC=CC(O)C(COP(=O)(O)O)NC(=O)CCCCCCCCCCC` (stereo not given) [CerP(d18:1/12:0)], the LC retention time is 7.37 min.

Take `CCCCCCCC(=O)O[C@H](CC(=O)[O-])C[N+](C)(C)C` [O-octanoyl-R-carnitine]: the LC retention time was 5.12 min.

For `CC(CCC(=O)NCC(=O)O)C1CCC2C3C(O)CC4CC(O)CCC4(C)C3CC(O)C12C` (stereo not given) [glycocholic acid (GCA)], the LC retention time was 4.3 min.

For `CC(CCC(=O)NCCS(=O)(=O)O)C1CCC2C3C(O)CC4CC(O)CCC4(C)C3CCC12C` (stereo not given) [taurochenodeoxycholic acid (TCDCA)], the LC retention time was 3.89 min.

Take `CCCCCCCCC=CCCCCCCCC(N)=O` [oleamide]: the LC retention time is 7.16 min.

`CC(=O)Cc1ccccc1` [phenylmethyl methyl ketone]: the LC retention time is 3.31 min.

Take `NC(N)=NCCC[C@H](NCCC(=O)O)C(=O)O` [L-N2-(2-carboxyethyl)arginine]: the LC retention time was 4.28 min.

As for `CCCCCC=CCC=CCCCCCCCC(=O)OC(CC(=O)[O-])C[N+](C)(C)C` (stereo not given) [O-linoelaidylcarnitine], the LC retention time was 5.98 min.

With `CCCCCC=CCC=CCC=CCC=CCCCC(=O)OCC(O)COP(=O)([O-])OCC[N+](C)(C)C` (stereo not given) [LysoPC(20:4)], the LC retention time was 7.74 min.

In the case of `CCCCCCCCC=CCCCCCCCC(=O)OC(CC(=O)[O-])C[N+](C)(C)C` (stereo not given) [oleoylcarnitine], the LC retention time was 6.24 min.

Turning to `CCCCCCCCCC(=O)O[C@H](CC(=O)[O-])C[N+](C)(C)C` [O-decanoyl-L-carnitine], the LC retention time is 5.71 min.

On to `CCCCCCCCCCCCCCCCOCC(O)COP(=O)([O-])OCC[N+](C)(C)C` (stereo not given) [PC(O-16:0/0:0)], for which the LC retention time is 6.42 min.

Turning to `C=CC1=C(C)C(=O)N=C1C=c1[nH]c(=Cc2[nH]c(CC3NC(=O)C(C=C)=C3C)c(C)c2CCC(=O)O)c(CCC(=O)O)c1C` (stereo not given) [15,16-dihydrobiliverdin], the LC retention time is 7.42 min.

Regarding `[NH3+]C(Cc1ccccc1)C(=O)NC(Cc1ccccc1)C(=O)[O-]` (stereo not given) [Phe-Phe], the LC retention time is 2.91 min.

Turning to `CCCCCC=CCC=CCCCCCCCC(=O)O` [octadecadienoic acid], the LC retention time was 7.44 min.

On to `CC(=CCCC(C)C1CCC2C3C(O)CC4CC(O)CCC4(C)C3CCC12C)C(=O)O` (racemic), for which the LC retention time is 6.87 min.

As for `CC(CCC(=O)NCC(=O)O)C1CCC2C3CCC4CC(O)CCC4(C)C3CC(O)C12C` (stereo not given) [glycodeoxycholic acid (GDCA)], the LC retention time was 4.28 min.

For `CC(CCC(=O)NCC(=O)O)C1CCC2C3C(O)CC4CC(O)CCC4(C)C3CCC12C` (stereo not given) [glycochenodeoxycholic acid (GCDCA)], the LC retention time was 4.79 min.

`C=CC1=C(C)C(=Cc2[nH]c(Cc3[nH]c(C=C4NC(=O)C(C)=C4C=C)c(C)c3CCC(=O)O)c(CCC(=O)O)c2C)NC1=O` [4E,15Z-bilirubin IXa]: the LC retention time was 7.62 min.
